What all share (assay): DTP human tumour cell line panel, 48 h
Assay [1] concerns HCT-15 colon.
Assay [2] deals with KM12 colon.
Assay [3] has as its system M14 melanoma.
The subject of assay [4] is MOLT-4 leukemia.
Assay [5] deals with NCI-H460 lung.
Assay [6] concerns SF-539 CNS.
Assay [7] relates to SNB-19 CNS.
Assay [8] relates to UACC-257 melanoma.
For assay [9], the system named is MCF7 breast.

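How tested: cells in 96-well plates exposed to compound for 48 hours at five concentrations. GI50: concentration for 50% inhibition of growth. TGI marks complete inhibition of growth.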

The TGI is the concentration giving total growth inhibition. Higher therefore signals less potent growth arrest. Turning to `CC(C)NC(=O)OCc1nnn2c1C(OC(=O)NC(C)C)CC2` (centres undefined), the TGI in assay [1], in [2], in assay [3], in assay [4], in [5] and in assay [6] was more than 100 µM throughout. The TGI in [7] and in assay [8] was more than 100 µM throughout.
As to `Cc1ccc(S(=O)(=O)NCCCN(CCCNS(=O)(=O)c2ccc(C)cc2)S(=O)(=O)c2ccc(C)cc2)cc1`, the TGI in [1], in assay [2], in assay [3], in assay [4], in assay [5] and in assay [6] was more than 100 µM throughout. The TGI in [7] and in assay [8] was more than 100 µM throughout.
As for `C=CCCc1cc(OC)ccc1CN(C)C(C)(C)CO`, the TGI in assay [1], in assay [2], in [5], in assay [6], in [7] and in [8] was more than 100 µM in each case.
As for `COCCNC(=O)C1C(=O)N(CCOC)C(=O)/C1=N/N` (centres undefined), the total growth inhibition concentration (TGI) in assay [1], in assay [2], in [3], in [4], in assay [6] and in assay [7] was more than 100 µM in each case. For the same compound, the concentration for total growth inhibition (TGI) in assay [8] is more than 100 µM.
`COC1OC(OC)C2C(c3c(C)cc(C)cc3C)=NOC12` (centres undefined): the TGI in assay [1], in assay [2], in [3], in assay [4], in assay [5] and in [7] was more than 100 µM in each case. The compound also came in with a TGI in assay [8] of more than 100 µM.
For `COc1ccc(C(=O)O/N=C2\CCCC\C2=C/c2ccccc2)cc1`, the TGI in assay [1] was more than 100 µM; in assay [3], more than 100 µM; in [4], more than 100 µM; in [5], more than 100 µM; in [6], 81.2 µM; in assay [7] it was more than 100 µM.
Regarding `CCCCN(CCCC)C(=Nc1ccccc1)N(CCCC)CCCC`, the TGI was 22.6 µM in assay [2]; 13.1 µM in assay [4]; 19.1 µM in [5]; 24.6 µM in [6]; 32 µM in assay [7]; 37.5 µM in assay [8].
Regarding `N#Cc1c([N+](=O)[O-])cc(C(F)(F)F)cc1[N+](=O)[O-]`, the TGI in assay [1] came to 24.9 µM; in [2] it was 12.4 µM; in assay [3], 17.1 µM; in assay [4], 4.95 µM; in [5] it was 40.3 µM; in assay [6], 11 µM. Besides, the concentration for total growth inhibition (TGI) in assay [7] is 32.4 µM; in assay [8], 19.2 µM.
What is called GI50 is the concentration that inhibits growth by half. On to `c1ccc([CH2][Sn]([CH2]c2ccccc2)([S]c2cccc3cccnc23)[S]c2cccc3cccnc23)cc1`, for which the GI50 is 0.2 µM in assay [1]; 0.221 µM in assay [3]; 0.273 µM in [5]; 0.26 µM in [6]; 0.853 µM in assay [7]. The concentration for total growth inhibition (TGI) is 0.476 µM in assay [1]; 0.511 µM in [3]; 1.01 µM in assay [5]; 0.662 µM in [6]; 2.07 µM in [7].
For `C=C1C(=O)OC2C1C(OC(=O)/C(=C/C)COC(C)=O)CC1(CO1)C1C(OC(=O)/C(=C/C)CO)C=C(C)C21` (centres undefined), the concentration for total growth inhibition (TGI) worked out at 4.91 µM in [1]; 15.3 µM in assay [2]; 3.86 µM in assay [3]; 2.24 µM in assay [4]; 28.3 µM in assay [5]; 19.5 µM in [6]. Further, the values for the concentration for total growth inhibition (TGI) in assay [7] and in assay [8] were 13.9 µM and 6.99 µM, respectively.
Regarding `CN(C)CCCn1cnc2ncccc2c1=O`, the TGI in [2], in assay [3], in assay [4], in assay [5], in assay [6] and in assay [7] was more than 100 µM in each case.
For the compound `Cc1c(C(=O)/C=C/c2ccco2)[n+](=O)c2ccccc2n1[O-]`, the total growth inhibition concentration (TGI) in [2], in [3], in assay [4], in [5], in assay [6] and in [7] was more than 100 µM each time. In [8], the concentration for total growth inhibition (TGI) is more than 100 µM.
Turning to `CN1CCC(O)C(CNC23CC4CC(CC(C4)C2)C3)C1` (centres undefined), the TGI in assay [2], in [4], in assay [5], in assay [6], in assay [7] and in assay [8] was more than 100 µM throughout.
Take `CCCOC(=O)C1CCC(=O)N1C(=O)C(Cl)Cl` (centres undefined): the TGI in assay [1], in [2], in [3], in assay [4], in [5] and in [7] was more than 100 µM in each case. In addition, the TGI in assay [8] was more than 100 µM.
For the compound `CCS[C@H]1NC(=O)C1[C@H](C)O[Si](C)(C)C(C)(C)C` (some centres undefined), the total growth inhibition concentration (TGI) in assay [1], in [2], in assay [5], in assay [6], in assay [7] and in [8] was more than 100 µM throughout.
`COc1ccc([C@H]2c3cc(OC)c(OC)cc3C=C(C=O)C2CO)cc1OC` (some centres undefined): the GI50 in assay [1] is 5.03 µM; in [2], 2.9 µM; in assay [3], 4.41 µM; in assay [9] it was 3.73 µM; in assay [4], more than 100 µM; in [5], 3.51 µM. The GI50 in [6] was 3.33 µM; in [7], 8.56 µM; in assay [8], more than 100 µM. For the same compound, the TGI in assay [1] is more than 100 µM; in [2] it was 43.6 µM; in assay [3], more than 100 µM; in assay [9], more than 100 µM; in assay [4], more than 100 µM; in assay [5] it was more than 100 µM. Moreover, the concentration for total growth inhibition (TGI) in assay [6], in [7] and in assay [8] was more than 100 µM in each case.

These data come from PubChem BioAssay (NCI).
